Converted amounts (≈) assume the structure as drawn. “Also recorded” adds a separate entry of the source. Where two headings read alike, the source gives them in different places. Each block holds one compound with its values, some of them ahead of it.
Legend:
Format in all cases: cell-based
Escherichia coli = test: MIC Agar Dilution Test, Escherichia coli
Excerpt: (§1) The following strains of microorganisms were used in Minimum Inhibitory Concentration (MIC) tests for phenyl 2-acetoxyethanoic acid in this example and for benzoyl peroxide, chlorhexidine gluconate and triclosan in the following examples. In total, five strains were used for S. aureus, five strains were used for S. epidermidis, two strains were used for M. sedentarius, three strains were used for M. luteus, two strains were used for B. epidermis, three strains were used for C. minutissium, one strain was used for S. marcescens, three strains were used for P. aeruginosa, four strains were used for E. coli, and thirty-two strains were used for P. acnes.
(§2) Antimicrobial effects were determined based on MIC Agar Dilution Test utilizing Trypticase Soy Agar II (BBL) incorporation plates with and without 10% intralipid (Kabi Pharmacia Inc.). Initially, phenyl 2-acetoxyethanoic acid was prepared as a 2 mg/ml (0.2%) solution in water. This solution with serial dilution was incorporated into the test agar plates. The MIC test gave similar results when the same species but a different strain was used.
(§3) Under the same test conditions described in Example 1, benzoyl peroxide was prepared as a 2.5 mg/ml (0.25%) solution in water. This solution with serial dilution was incorporated into the test agar plates. Typical test results are shown as follows.
(§4) Under the same test conditions described in Example 1, chlorhexidine gluconate was prepared as a 2 mg/ml (0.2%) solution in water. This solution with serial dilution was incorporated into the test agar plates. Typical test results are shown as follows.
(§5) Under the same test conditions described in Example 1, triclosan was prepared as a 10 mg/ml (1%) solution in water. This solution with serial dilution was incorporated into the test agar plates. Typical test results are shown as follows.
(§6) Ten different species of bacteria were used in Minimum Inhibitory Concentration (MIC) tests. The bacteria include S. aureus, S. epidermidis,M. sedentarius, M. luteus, B. epidermis, C. minutissium, S. marcescens, P. aeruginosa, E. coli, and P. acnes. In addition various sources and strains of these bacteria were also included in the tests, and up to 32 different strains of P. acnes were used.
(§7) The test substance selected from phenyl 2-acetoxyethanoic acid, benzoyl peroxide, chlorhexidine gluconate and triclosan was dissolved in water, and the solution with serial dilution was incorporated into the test agar plates. The plates containing different concentrations of test substance were inoculated with a strain of bacterium. MIC is defined as the lowest concentration of the test substance in the plate in which there is no growth of the microorganism.

Micrococcus sedentarius = test: MIC Agar Dilution Test, Micrococcus sedentarius; conditions: Kytococcus sedentarius
Excerpt: as §1, §2, §3, §4, §5, §6, §7

Brevibacterium epidermis = test: MIC Agar Dilution Test, Brevibacterium epidermis
Excerpt: as §1, §2, §3, §4, §5, §6, §7

Serratia marcescens = test: MIC Agar Dilution Test, Serratia marcescens
Excerpt: as §1, §2, §3, §4, §5, §6, §7

[1] = tested on: ten different species of bacteria; test: MIC Agar Dilution Test, panel of ten bacteria
Excerpt: as §1, §2, §3, §4, §5
In order to determine the antimicrobial effect of an aryl 2-acetoxyethanoicacid, a standard test method of Minimum Inhibitory Concentration (MIC) against the growth of 10 bacteria was used. To determine a prophylactic effect against the development of, as well as a topical effect in the treatment of, body foul door, eleven human subjects participated in this study. More than twenty human subjects participated in a study to determine whether the compositions containing an aryl 2-acetoxyethanoic acid were therapeutically effective for topical treatment of folliculitis and other skin lesions, nail infections and mucosal infections caused by microbial infections. Scientific and test results are overviewed as follows.
as §6, §7

[2] = tested on: Staphylococcus epidermidis; test: MIC Agar Dilution Test, Staphylococcus epidermidis
Excerpt: as §1, §2, §3, §4, §5, §6, §7

Micrococcus luteus = test: MIC Agar Dilution Test, Micrococcus luteus
Excerpt: as §1, §2, §3, §4, §5, §6, §7

Propionibacterium acnes = test: MIC Agar Dilution Test, Propionibacterium acnes; conditions: Cutibacterium acnes
Excerpt: as §1, §2, §3, §4, §5, §6, §7

[3] = tested on: Corynebacterium minutissium; test: MIC Agar Dilution Test, Corynebacterium minutissium
Excerpt: as §1, §2, §3, §4, §5, §6, §7

Staphylococcus aureus = test: MIC Agar Dilution Test, Staphylococcus aureus
Excerpt: as §1, §2, §3, §4, §5, §6, §7

Pseudomonas aeruginosa = test: MIC Agar Dilution Test, Pseudomonas aeruginosa
Excerpt: as §1, §2, §3, §4, §5, §6, §7

[4] = E. coli, 10% intralipid, read-out: MIC Lipid
[5] = E. coli, no lipid, read-out: MIC No Lipid
[6] = M. sedentarius, 10% intralipid, read-out: MIC Lipid
[7] = M. sedentarius, no lipid, read-out: MIC No Lipid
[8] = B. epidermis, 10% intralipid, read-out: MIC Lipid
[9] = B. epidermis, no lipid, read-out: MIC No Lipid
[10] = S. marcescens, 10% intralipid, read-out: MIC Lipid
[11] = S. marcescens, no lipid, read-out: MIC No Lipid
[12] = in the absence of lipid materials, triclosan: excluding S. marcescens and P. aeruginosa
[13] = in the presence of 10% lipid materials, benzoyl peroxide: excluding S. marcescens and P. aeruginosa
[14] = S. epidermidis, 10% intralipid, read-out: MIC Lipid
[15] = S. epidermidis, no lipid, read-out: MIC No Lipid
[16] = M. luteus, 10% intralipid, read-out: MIC Lipid
[17] = M. luteus, no lipid, read-out: MIC No Lipid
[18] = P. acnes, 10% intralipid, read-out: MIC Lipid
[19] = P. acnes, no lipid, read-out: MIC No Lipid
[20] = C. minutissium, 10% intralipid, read-out: MIC Lipid
[21] = C. minutissium, no lipid, read-out: MIC No Lipid
[22] = S. aureus, 10% intralipid, read-out: MIC Lipid
[23] = S. aureus, no lipid, read-out: MIC No Lipid
[24] = P. aeruginosa, 10% intralipid, read-out: MIC Lipid
[25] = P. aeruginosa, no lipid, read-out: MIC No Lipid

MIC (Escherichia coli; [4]): 1250 µg/mL (≈ 5.16 mM) | MIC (Escherichia coli; [5]): 2500 µg/mL (≈ 10.3 mM) | MIC (Micrococcus sedentarius; [6]): 650 µg/mL (≈ 2.68 mM) | MIC (Micrococcus sedentarius; [7]): 2500 µg/mL (≈ 10.3 mM) | MIC (Micrococcus sedentarius; in the presence of 10% lipid materials, read-out: concentration showing inhibitory effects against M. sedentarius): 625 µg/mL | MIC (Brevibacterium epidermis; [8]): 1250 µg/mL (≈ 5.16 mM) | MIC (Brevibacterium epidermis; [9]): 2500 µg/mL (≈ 10.3 mM) | MIC (Serratia marcescens; [10]): 1250 µg/mL (≈ 5.16 mM) | MIC (Serratia marcescens; [11]): 72500 µg/mL (≈ 299 mM) | MIC [2, 14]: 1250 µg/mL (≈ 5.16 mM) | MIC [2, 15]: 2500 µg/mL (≈ 10.3 mM) | MIC (Micrococcus luteus; [16]): 650 µg/mL (≈ 2.68 mM) | MIC (Micrococcus luteus; [17]): 2500 µg/mL (≈ 10.3 mM) | MIC (Micrococcus luteus; in the presence of 10% lipid materials (printed M. lutens), read-out: concentration showing inhibitory effects against M. luteus): 625 µg/mL | MIC (Propionibacterium acnes; [18]): 625 µg/mL (≈ 2.58 mM) | MIC (Propionibacterium acnes; [19]): 2500 µg/mL (≈ 10.3 mM) | MIC (Propionibacterium acnes; in the presence of 10% lipid materials, read-out: concentration effective against P. acnes): 625 µg/mL | MIC [3, 20]: 1250 µg/mL (≈ 5.16 mM) | MIC [3, 21]: 2500 µg/mL (≈ 10.3 mM) | MIC (Staphylococcus aureus; [22]): 1250 µg/mL (≈ 5.16 mM) | MIC (Staphylococcus aureus; [23]): 2500 µg/mL (≈ 10.3 mM) | MIC (Pseudomonas aeruginosa; [24]): 1250 µg/mL (≈ 5.16 mM) | MIC (Pseudomonas aeruginosa; [25]): 72500 µg/mL (≈ 299 mM)
SMILES: O=C(OOC(=O)c1ccccc1)c1ccccc1 [benzoyl peroxide]
effect against the growth of the bacteria [1, 12]: not effective against the growth of all the bacteria tested | effect against the growth of the bacteria [1, 13]: moderately effective

SMILES: Oc1cc(Cl)ccc1Oc1ccc(Cl)cc1Cl [triclosan]
MIC (Escherichia coli; read-out: MIC Lipid): > 10000 µg/mL | MIC (Escherichia coli; read-out: MIC No Lipid): 156 µg/mL (≈ 0.539 mM) | MIC (Micrococcus sedentarius; read-out: MIC Lipid): > 10000 µg/mL | MIC (Micrococcus sedentarius; read-out: MIC No Lipid): 156 µg/mL (≈ 0.539 mM) | MIC (Brevibacterium epidermis; read-out: MIC Lipid): > 10000 µg/mL | MIC (Brevibacterium epidermis; read-out: MIC No Lipid): 156 µg/mL (≈ 0.539 mM) | MIC (Serratia marcescens; read-out: MIC Lipid): > 10000 µg/mL | MIC (Serratia marcescens; read-out: MIC No Lipid): > 10000 µg/mL | effect against the growth of the bacteria [1, 12]: effective against various bacteria | effect against the growth of the bacteria [1, 13]: ineffective; also recorded: not effective against the growth of all the bacteria tested; also recorded: ineffective against most microorganisms | MIC ([1]; read-out: concentration found effective against the bacteria tested): 156 µg/mL (≈ 0.539 mM) | MIC ([2]; read-out: MIC Lipid): 5000 µg/mL (≈ 17.3 mM) | MIC ([2]; read-out: MIC No Lipid): 156 µg/mL (≈ 0.539 mM) | MIC (Micrococcus luteus; read-out: MIC Lipid): > 10000 µg/mL | MIC (Micrococcus luteus; read-out: MIC No Lipid): 156 µg/mL (≈ 0.539 mM) | MIC (Propionibacterium acnes; read-out: MIC Lipid): > 10000 µg/mL | MIC (Propionibacterium acnes; read-out: MIC No Lipid): 156 µg/mL (≈ 0.539 mM) | MIC ([3]; read-out: MIC Lipid): > 10000 µg/mL | MIC ([3]; read-out: MIC No Lipid): 156 µg/mL (≈ 0.539 mM) | MIC (Staphylococcus aureus; read-out: MIC Lipid): > 10000 µg/mL | MIC (Staphylococcus aureus; read-out: MIC No Lipid): 156 µg/mL (≈ 0.539 mM) | MIC (Pseudomonas aeruginosa; read-out: MIC Lipid): > 10000 µg/mL | MIC (Pseudomonas aeruginosa; read-out: MIC No Lipid): > 10000 µg/mL

MIC (Escherichia coli; [4]): > 2000 µg/mL | MIC (Escherichia coli; [5]): 250 µg/mL | MIC (Micrococcus sedentarius; [6]): > 2000 µg/mL | MIC (Micrococcus sedentarius; [7]): 125 µg/mL | MIC (Brevibacterium epidermis; [8]): > 2000 µg/mL | MIC (Brevibacterium epidermis; [9]): 250 µg/mL | MIC (Serratia marcescens; [10]): > 2000 µg/mL | MIC (Serratia marcescens; [11]): 1000 µg/mL | MIC [2, 14]: > 2000 µg/mL | MIC [2, 15]: 125 µg/mL | MIC (Micrococcus luteus; [16]): > 2000 µg/mL | MIC (Micrococcus luteus; [17]): 125 µg/mL | MIC (Propionibacterium acnes; [18]): > 2000 µg/mL | MIC (Propionibacterium acnes; [19]): 62.5 µg/mL | MIC [3, 20]: > 2000 µg/mL | MIC [3, 21]: 125 µg/mL | MIC (Staphylococcus aureus; [22]): > 2000 µg/mL | MIC (Staphylococcus aureus; [23]): 125 µg/mL | MIC (Pseudomonas aeruginosa; [24]): > 2000 µg/mL | MIC (Pseudomonas aeruginosa; [25]): 1000 µg/mL
SMILES: N=C(NCCCCCCNC(=N)NC(=N)Nc1ccc(Cl)cc1)NC(=N)Nc1ccc(Cl)cc1 [chlorhexidine gluconate]
effect against the growth of the bacteria [1, 12]: effective against various bacteria | effect against the growth of the bacteria [1, 13]: totally ineffective; also recorded: not effective against the growth of all the bacteria tested; also recorded: ineffective against most microorganisms
